The source of these data is patent US11312727B1, “Macrocyclic flu endonuclease inhibitors” (Janssen BioPharma, Inc., priority 2018, dated 2022).

Each structure is given as a SMILES string. pEC50: −log10 of the molar value.

For data set [1], the system named is Influenza strain A549 A/WSN/33 (H1N1). Nature of the data set: microbe, parasite or virus in culture. It is filed as cell-based. As to conditions: Influenza A virus, A549, 20 h, A549 cells, influenza A/WSN/33 (H1N1), 20 hours incubation; read-out: A549_A(H1N1) EC50.
A short description of another data set: in vitro. The settings on record: human, CC50, uninfected A549 cells, CellTiter-Glo.

Take `O=C1c2c(O)c(=O)ccn2N2CN1C/C=C/CCOc1cccc(c1)C2c1ccccc1` (centres unmarked) [Compound 6, (*E)-15-hydroxy-2-phenyl-12,13,14,16-tetrahydro-11H-4-oxa-1(1,3)-pyrido[2,1-f][1,2,4]triazina-3(1,3)-benzenacyclononaphan-7-ene-14,16-dione]: in data set [1], the pEC50 is 5.21. Also, in the data set “in vitro”, the CC50 was > 20000 nM.
Regarding `O=C1c2c(O)c(=O)ccn2N2CN1C1(/C=C/COc3cc(F)c(F)c4c3[C@H]2c2ccccc2SC4)CCC1` (single isomer, unassigned) [Compound 159B, (17a′*S,*E)-24′,25′-difluoro-12′-hydroxy-2′,17a′-dihydro-6′H-spiro[cyclobutane-1,9′-[3,4](epiprop[1]en[1]yl[3]ylidene)[10,17]methanobenzo[6,7]thiepino[4,5-c]pyrido[1,2-f][1]oxa[5,6,9]triazacyclotridecine]-11′,13′-dione], in data set [1], the pEC50 was 9.72. Further, the CC50 in the data set “in vitro” was > 100 nM.
In the case of `O=C1c2c(O)c(=O)ccn2N2CN1CC/C=C\c1ccccc1C2c1ccccc1` (centres unmarked) [Compound 54, (*Z)-4-hydroxy-15-phenyl-8,15-dihydro-7H-6,16-methanobenzo[j]pyrido[1,2-b][1,2,5]triazacyclododecine-3,5-dione], the pEC50 in data set [1] is 6.93. The CC50 in the data set “in vitro” is > 20000 nM.
For `O=C1c2c(O)c(=O)ccn2N2CN1CC[C@H]1C[C@H]1COc1cccc3c1C2c1ccccc1SC3` (single isomer, unassigned) [Compound 144BB, (1*S,13*R,15*R)-7-hydroxy-17-oxa-24-thia-2,3,10-triazaheptacyclo[16.12.1.12,10.03,8.013,15.022,31.025,30]dotriaconta-4,18,20,22(31),25(30),26,28-heptaene-6,9-dione], in that order: 7.29 and > 4000 nM.
As for `O=C1c2c(O)c(=O)ccn2N2CN1C/C=C\COc1cc(F)c(F)cc1[C@@H]2c1ccccc1` (single isomer, unassigned) [Compound 41B, (18*S,Z)-2,3-difluoro-12-hydroxy-18-phenyl-6,9-dihydro-18H-10,17-methanobenzo[b]pyrido[1,2-f][1]oxa[5,6,9]triazacyclotridecine-11,13-dione], the pEC50 in data set [1] was 8.22. The CC50 in “in vitro” is > 2000 nM.
Take `O=C1c2c(O)c(=O)ccn2N2CN1C/C=C/COc1cc(F)c(F)c3c1[C@@H]2c1ccccc1SC3` (single isomer, unassigned) [Compound 140A, (17a*R,*E)-24,25-difluoro-12-hydroxy-2,6,9,17a-tetrahydro-3,4-(epiprop[1]en[1]yl[3]ylidene)-10,17-methanobenzo[6,7]thiepino[4,5-c]pyrido[1,2-f][1]oxa[5,6,9]triazacyclotridecine-11,13-dione]: the negative-log EC50 (pEC50) in data set [1] is 7.02. In the data set “in vitro”, this molecule returned a CC50 of 9960 nM.
As to `O=C1c2c(O)c(=O)ccn2N2CN1C1(/C=C\COc3cc(F)c(F)c4c3[C@H]2c2ccccc2SC4)CC1` (single isomer, unassigned) [Compound 108D], the pEC50 in data set [1] was 9.05. In addition, the CC50 in the data set “in vitro” is > 200 nM.
On to `O=C1c2c(O)c(=O)ccn2N2CN1C/C=C\COc1ccc(F)cc1[C@@H]2c1ccccc1` (single isomer, unassigned) [Compound 22B, (18*S,Z)-2-fluoro-12-hydroxy-18-phenyl-6,9-dihydro-18H-10,17-methanobenzo[b]pyrido[1,2-f][1]oxa[5,6,9]triazacyclotridecine-11,13-dione], for which the pEC50 in data set [1] is 7.92. Besides, the CC50 in the data set “in vitro” was > 1000 nM.
With `C[C@@H]1/C=C/COc2c(F)cccc2[C@@H](c2ccccc2)N2CN1C(=O)c1c(O)c(=O)ccn12` (single isomer, unassigned) [Compound 141AA, (9*R,18*R,E)-4-fluoro-12-hydroxy-9-methyl-18-phenyl-6,9-dihydro-18H-10,17-methanobenzo[b]pyrido[1,2-f][1]oxa[5,6,9]triazacyclotridecine-11,13-dione], in data set [1], the negative-log EC50 (pEC50) was 8.82. Besides, the CC50 in the data set “in vitro” is > 50 nM.
On to `O=C1c2c(O)c(=O)ccn2N2CN1CCCCOc1ccccc1[C@H]2c1ccccc1` [Compound 8A, (18R)-12-hydroxy-18-phenyl-6,7,8,9-tetrahydro-18H-10,17-methanobenzo[b]pyrido[1,2-f][1]oxa[5,6,9]triazacyclotridecine-11,13-dione], for which the pEC50 in data set [1] is 7.89. Moreover, in “in vitro”, the CC50 is > 2000 nM.
With `O=C1c2c(O)c(=O)ccn2N2CN1C/C=C\COc1ccccc1[C@H]2c1ccccc1` [Compound 5A, (18R,Z)-12-hydroxy-18-phenyl-6,9-dihydro-18H-10,17-methanobenzo[b]pyrido[1,2-f][1]oxa[5,6,9]triazacyclotridecine-11,13-dione], the pEC50 in data set [1] was 8.10. Besides, in “in vitro”, the CC50 is > 2000 nM.
Turning to `CC[C@@H]1/C=C/COc2c(F)cccc2[C@@H](c2ccccn2)N2CN1C(=O)c1c(O)c(=O)ccn12` (single isomer, unassigned) [Compound 154AA, (9*R,18*S,*E)-9-ethyl-4-fluoro-12-hydroxy-18-(pyridin-2-yl)-6,9-dihydro-18H-10,17-methanobenzo[b]pyrido[1,2-f][1]oxa[5,6,9]triazacyclotridecine-11,13-dione], the pEC50 in data set [1] was < 7.30. For the same molecule, the CC50 in “in vitro” is > 100 nM.
For `O=C1c2c(O)c(=O)ccn2N2CN1C[C@H]1C[C@@H]1COc1ccccc1[C@H]2c1ccccc1` (single isomer, unassigned) [Compound 80BA, (1a*S,8*R,17a*S)-14-hydroxy-8-phenyl-1a,2,17,17a-tetrahydro-1H,8H-9,16-methanobenzo[b]cyclopropa[k]pyrido[1,2-f][1]oxa[5,6,9]triazacyclotridecine-13,15-dione], the pEC50 in data set [1] was < 6.30. For the same molecule, in the data set “in vitro”, the CC50 was > 1000 nM.
In the same order, the values of `O=C1c2c(O)c(=O)ccn2N2CN1C1(/C=C/COc3cc(F)c(F)c4c3[C@@H]2c2ccccc2SC4)CCC1` (single isomer, unassigned) [Compound 159A, (17a′*R,*E)-24′,25′-difluoro-12′-hydroxy-2′,17a′-dihydro-6′H-spiro[cyclobutane-1,9′-[3,4](epiprop[1]en[1]yl[3]ylidene)[10,17]methanobenzo[6,7]thiepino[4,5-c]pyrido[1,2-f][1]oxa[5,6,9]triazacyclotridecine]-11′,13′-dione] are < 7.30 and > 100 nM.
Turning to `CC(C)(C)[C@@H]1/C=C/COc2cccc3c2[C@H](c2ccccc2SC3)N2CN1C(=O)c1c(O)c(=O)ccn12` (single isomer, unassigned) [Compound 157B, (9*S,17a*R,*E)-9-(tert-butyl)-12-hydroxy-2,6,9,17a-tetrahydro-3,4-(epiprop[1]en[1]yl[3]ylidene)-10,17-methanobenzo[6,7]thiepino[4,5-c]pyrido[1,2-f][1]oxa[5,6,9]triazacyclotridecine-11,13-dione], the pEC50 in data set [1] is < 7.30. In addition, the CC50 in the data set “in vitro” was > 100 nM.
Consider `O=C1c2c(O)c(=O)ccn2N2CN1[C@H](C1CC1)/C=C/COc1c(ccc(F)c1F)[C@H]2c1ccccc1` (single isomer, unassigned) [Compound 152BB, (9*R,18*R,*E)-9-cyclopropyl-3,4-difluoro-12-hydroxy-18-phenyl-6,9-dihydro-18H-10,17-methanobenzo[b]pyrido[1,2-f][1]oxa[5,6,9]triazacyclotridecine-11,13-dione], for which, in data set [1], the pEC50 was 8.74. The CC50 in the data set “in vitro” is > 200 nM.
Regarding `O=C1c2c(O)c(=O)ccn2N2CN1C1(/C=C/COc3c(F)cccc3[C@@H]2c2ccccc2)CCC1` (single isomer, unassigned) [Compound 145B, (18′*S,E)-4′-fluoro-12′-hydroxy-18′-phenyl-6′H,18′H-spiro[cyclobutane-1,9′-[10,17]methanobenzo[b]pyrido[1,2-f][1]oxa[5,6,9]triazacyclotridecine]-11′,13′-dionene], the pEC50 in data set [1] was 6.51. Moreover, the cytotoxic concentration (CC50) in “in vitro” is > 10000 nM.
In the same order, the values of `O=C1c2c(O)c(=O)ccn2N2CN1[C@H](C(F)F)/C=C/COc1cccc3c1[C@@H]2c1ccccc1SC3` (single isomer, unassigned) [Compound 163BB, (9*S,17a*R,*E)-9-(difluoromethyl)-12-hydroxy-2,6,9,17a-tetrahydro-3,4-(epiprop[1]en[1]yl[3]ylidene)-10,17-methanobenzo[6,7]thiepino[4,5-c]pyrido[1,2-f][1]oxa[5,6,9]triazacyclotridecine-11,13-dione] are < 7.30 and > 100 nM.
As for `O=C1c2c(O)c(=O)ccn2N2CN1C/C=C\COc1cc(F)ccc1[C@H]2c1ccccn1` (single isomer, unassigned) [Compound 71B, (18*S,*Z)-3-fluoro-12-hydroxy-18-(pyridin-2-yl)-6,9-dihydro-18H-10,17-methanobenzo[b]pyrido[1,2-f][1]oxa[5,6,9]triazacyclotridecine-11,13-dione], the pEC50 in data set [1] is 5.11. The CC50 in the data set “in vitro” was > 20000 nM.
Regarding `CC(C)c1ccccc1[C@@H]1c2ccc(F)c(F)c2OC/C=C\CN2CN1n1ccc(=O)c(O)c1C2=O` (single isomer, unassigned) [Compound 158B, (18*R,*Z)-3,4-difluoro-12-hydroxy-18-(2-isopropylphenyl)-6,9-dihydro-18H-10,17-methanobenzo[b]pyrido[1,2-f][1]oxa[5,6,9]triazacyclotridecine-11,13-dione], the pEC50 in data set [1] is < 7.30. Also, the CC50 in the data set “in vitro” is > 100 nM.
`CC[C@H]1/C=C/COc2c(ccc(F)c2F)[C@H](c2ccccc2)N2CN1C(=O)c1c(O)c(=O)ccn12` [Compound 101BA, (9S,18S,E)-9-ethyl-3,4-difluoro-12-hydroxy-18-phenyl-6,9-dihydro-18H-10,17-methanobenzo[b]pyrido[1,2-f][1]oxa[5,6,9]triazacyclotridecine-11,13-dione]: the pEC50 in data set [1] was < 7.00. For the same molecule, the cytotoxic concentration (CC50) in the data set “in vitro” is > 200 nM.
For `O=C1c2c(O)c(=O)ccn2N2CN1C/C=C\CCc1ccccc1[C@@H]2c1ccccc1` (single isomer, unassigned) [Compound 21B, (17*S,*Z)-4-hydroxy-16-phenyl-7,10,11,16-tetrahydro-6,17-methanobenzo[k]pyrido[1,2-b][1,2,5]triazacyclotridecine-3,5-dione], in that order: 6.09 and > 1000 nM.
